How the values were obtained:
tobacco hornworm = settings: in vivo; cited from earlier work
[1] = tested on: cotton aphid (Aphis gossypii); assay: Cotton aphid mortality on sprayed cotton plants, assessed after 24 hours (Table 2); type: in vivo; settings: read-out: Mortality of Cotton Aphid On Cotton Plants: More Than 75% Mortality (A)
Experimental: (§1) The compounds of formula I useful in the present invention were tested for insecticidal activity by observing mortality in a population of cotton aphid (Aphis gossypii) on treated cotton plants caused by a test compound, when compared to like populations of cotton aphid on untreated plants. These tests were conducted in the following manner:
For each rate of application of test compound, two seven-to-ten days old cotton seedlings (Gossypium hirsutium) grown in 7.6 cm diameter pots were selected for the test. Each test plant was infested with about 120 adult cotton aphids by placing onto each test plant cuttings of leaves from cotton plants grown in a cotton aphid colony. Once infested, the test plants were maintained for up to about 12 hours to allow complete translocation of the aphids onto the test plant. A solution comprising 1000 part per million (ppm) of each test compound was prepared by dissolving 10 milligrams of the test compound in 1 mL of acetone. Each solution was then diluted with 9 mL of a solution of 0.03 mL of polyoxyethylene(10) isooctylphenyl ether in 100 mL of water. […] After this time, each plant was assessed for percent mortality caused by the test compound when compared to the population of aphids that was infested onto the test plants prior to treatment with test compound. […]

[2] = tested on: cotton aphid (Aphis gossypii); assay: Cotton aphid test in the same manner, more definitive percent mortality at selected rates and exposure times (Table 3); type: in vivo
Experimental: as §1
For each rate of application of test compound, two seven-to-ten days old cotton seedlings (Gossypium hirsutium) grown in 7.6 cm diameter pots were selected for the test. Each test plant was infested with about 120 adult cotton aphids by placing onto each test plant cuttings of leaves from cotton plants grown in a cotton aphid colony. Once infested, the test plants were maintained for up to about 12 hours to allow complete translocation of the aphids onto the test plant. A solution comprising 1000 part per million (ppm) of each test compound was prepared by dissolving 10 milligrams of the test compound in 1 mL of acetone. Each solution was then diluted with 9 mL of a solution of 0.03 mL of polyoxyethylene(10) isooctylphenyl ether in 100 mL of water. About 2.5 mL of solution of each test compound was needed to spray each replicate of test plant (5 mL total for each test compound). If needed, the solution of 1000 ppm of test compound was serially diluted with a solution of 10% acetone and 300 ppm of polyoxyethylene(10) isooctylphenyl ether in water to provide solutions of each test compound for lower rates of application, for example, 300 ppm, 100 ppm, 30 ppm, or 10 ppm. Each replicate of test plant was sprayed with the solutions of test compound until run-off on both the upper and lower surfaces of the leaves. All the test plants were sprayed using a DeVilbus Atomizer Model 152 (Sunrise Medical, Carlsbad, Calif.) at a pressure of about 0.63-0.74 kilogram per square centimeter from a distance of about 30.5 centimeters from the test plants. For comparison purposes, a solution of a standard, such as amitraz or demethylchlordimeform (DCDM), prepared in a manner analogous to that set forth above, as well as a solution of 10% acetone and 300 ppm of polyoxyethylene(10) isooctylphenyl ether in water containing no test compound were also sprayed onto test plants. Upon completion of spraying the solutions of test compound, the solution of standard, and the solution containing no test compound, the plants were allowed to dry. […] After this time, each plant was assessed for percent mortality caused by the test compound when compared to the population of aphids that was infested onto the test plants prior to treatment with test compound. […] If there was 75% mortality or greater of the cotton aphid, a test compound was designated as being more insecticidally active (A).
In a test conducted in the same manner as set forth above, certain compounds of formula I were tested to determine a more definitive percent mortality of cotton aphid.

## CN(C)CCC=C1c2ccccc2CCc2ccccc21 [amitriptyline]
Tobacco hornworm
  anti-feeding activity against tobacco hornworm: anti-feeding activity

## CN1CCC(=C2c3ccccc3Oc3ccccc32)CC1 [Compound 8, 9-(1-methyl-4-piperidylidene)xanthene]
[1]
  mortality at 100 ppm: > 75%
[2]; Aphis gossypii, 96 h, read-out: Percent Mortality of Cotton Aphid on Cotton Plants
  mortality at 100 ppm: 88%

## CNCCCN1c2ccccc2CCc2ccccc21 [Desipramine, desipramine]
Tobacco hornworm
  anti-feeding activity against tobacco hornworm: anti-feeding activity

## CN1CCN(C2Cc3ccccc3Oc3ccc([S+]([O-])C(F)(F)F)cc32)CC1 (centres unmarked) [Compound 76]
[2]; 100 ppm, 168 hours exposure
  Percent Mortality of Cotton Aphid on Cotton Plants: 32%

## CN1CCN(C2Cc3cc(F)ccc3Sc3ccccc32)CC1 (centres unmarked) [Compound 118]
[2]; 100 ppm, 72 hours exposure
  Percent Mortality of Cotton Aphid on Cotton Plants: 85%

## CN1CCN(C2Cc3ccccc3Oc3ccc(S(=O)(=O)C(F)(F)F)cc32)CC1 (centres unmarked) [Compound 77]
[2]; 100 ppm, 168 hours exposure
  Percent Mortality of Cotton Aphid on Cotton Plants: 37%

## CN1CCN(C2=Nc3ccccc3Sc3ccc(Cl)cc32)CC1 [Compound 189]
[2]; 1000 ppm, 168 hours exposure
  Percent Mortality of Cotton Aphid on Cotton Plants: 55%

## CSc1ccc2c(c1)C(N1CCN(C)CC1)Cc1cc(F)ccc1S2 (centres unmarked) [Compound 122]
[2]; 100 ppm, 72 hours exposure
  Percent Mortality of Cotton Aphid on Cotton Plants: 88%

## CCc1ccc2c(c1)C(=C1CCN(C)CC1)c1ccccc1O2 [Compound 12]
[2]; 100 ppm, 72 hours exposure
  Percent Mortality of Cotton Aphid on Cotton Plants: 26%

## CN1CCN(C2Cc3ccccc3Sc3c(F)cccc32)CC1 (centres unmarked) [Compound 94]
[2]; 1000 ppm, 72 hours exposure
  Percent Mortality of Cotton Aphid on Cotton Plants: 100%

## CC(C)c1ccc2c(c1)C(N1CCN(C)CC1)Cc1ccc(F)cc1S2 (centres unmarked) [Compound 127]
[2]; 1000 ppm, 168 hours exposure
  Percent Mortality of Cotton Aphid on Cotton Plants: 100%

## COc1ccc2c(c1)Sc1ccccc1CC2N1CCN(C)CC1 (centres unmarked) [Compound 101]
[2]; 100 ppm, 72 hours exposure
  Percent Mortality of Cotton Aphid on Cotton Plants: 60%

## CN1CCN(C2Cc3ccccc3Oc3cc(OC(F)(F)F)ccc32)CC1 (centres unmarked) [Compound 73]
[2]; 100 ppm, 168 hours exposure
  Percent Mortality of Cotton Aphid on Cotton Plants: 35%

From patent US20060111342A1, “Insecticidal tricyclic derivatives” (priority 2002, published 2006)
